Results from patent US9650407B2, “Reprogramming of cellular adhesion” (The Regents of the University of California, priority 2011, dated 2017).

Legend:
[1] = system: heterogeneous MCF10ARas/MCF10AWT microtissues; test: Emergent phenotypes in heterogeneous MCF10ARas/MCF10AWT microtissues in 3D lrECM culture; assay type: cell-based; conditions: over 24 hr in culture vs DMSO control; LY294002 20 μM, PD325901 200 nM, Sorafenib 10 μM, PIK-90 2 μM; DNase added immediately after sorting
Protocol: Sorafenib was a gift from Kevan Shokat (UCSF0 and used at 10 μM. PIK-90 was purchased from Calbiochem and used at 2 μM. High activity DNase was purchased from Ambion. Ethidium homodimer-1 was purchased from Invitrogen and used at 1 μM.
The following antibodies were used for western blot: E-cadherin (BD Biosciences), tubulin (Sigma-Aldrich), phospho-Erk and phospho-Akt (Cell Signaling Technology), pan-Ras (Calbiochem), goat anti-mouse-HRP, and goat anti-rabbit-HRP (Thermo Scientific). The following antibodies were used for immunofluorescent staining: GM130, β-catenin (BD Biosciences), α6-integrin, laminin-5 (Millipore), cleaved caspase-3 (Cell Signaling Technology), Ki-67 (Sigma-Aldrich), gp135 (a gift from Keith Mostov, UCSF), Alexa Fluor 488- and 568-conjugated goat anti-mouse, anti-rat, and anti-rabbit antibodies (Invitrogen). F-actin was stained with Alexa Fluor 488- or 568-conjugated phalloidin (Invitrogen). LY294002 and PD325901 (Calbiochem) were used at 20 μM and 200 nM, respectively. TURBO DNase (Invitrogen) was used at a concentration of 10 U/ml.
Time-lapse images of aggregates were acquired on a Zeiss 200M inverted fluorescence microscope equipped with an XCite […] light source and a Hamamatsu camera. Field positions were programmed into Slidebook 5.0 software, and images were acquired at 30 min intervals. Samples were maintained in a humidified chamber at 37° C. and 5% CO2. Phenotypes were scored in Slidebook 5.0 software after acquisition. Microtissues that merged with other microtissues or single cells were not scored due to confounding effects on cell motility.
Apoptotic cells were excluded from phenotype quantification, as judged by cell morphology (FIG. 27, Panels A-E) or uptake of ethidium homodimer-1 (FIG. 28, Panels C, G, and H). Extruding microtis sues contained a single H2B-GFP-expressing cell pushed beyond the phase-bright boundary formed by the surrounding cells. Multicellular protrusions began with a single H2B-GFP-expressing cell that led the translation of the surrounding cells without becoming disconnected from the microtissue. H2B-GFP-expressing cells that broke away from tissues and moved alone were scored as protruding cells due to their altered morphology and motility.

Jurkat cells = test: Time-lapse imaging of membrane dynamics of DNA-immobilized cells; assay type: cell-based; conditions: 1 uM latrunculin A; for membrane tubules from the cell surface: subsequent 100 uM nocodazole; for membrane microspikes: 100 uM nocodazole, 10 ng/mL PMA and 1.3 uM ionomycin
Protocol: Cells incorporating lipid-DNA were allowed to settle onto patterned glass within a PDMS-based flow cell for 30 minutes. Only cells hybridized to the surface via DNA were retained when the surface was washed with PBS. Patterned cells were imaged at 37° C. on a Zeiss Axiovert 200M at 200× or 400× magnification using phase contrast settings.
Cells were incubated with 1 uM latrunculin A either 10 (after nocodazole treatment) or 40 minutes prior to timelapse imaging. Cells were incubated with 10 ng/mL phorbol 12-myristate 13-acetate (PMA) and 1.3 uM ionomycin 4 hours prior to lipid incorporation. Cells were incubated with 100 uM nocodazole, with or without addition of latrunculin, 10 minutes prior to imaging.
Using ImageJ, cells were picked automatically from 20× fields of view and subsequently binarized. For each time point, scanning down the y-axis, the horizontal slice with the greatest width was identified. For each cell, the coefficient of variation was calculated for this set of widths, and this statistic was used to characterize each cell's membrane motility for binning. Error bars signify standard error.

COc1ccc2c(c1OC)N=C(NC(=O)c1cccnc1)N1CCN=C21 [PIK-90]
formation/frequency of motile multicellular protrusions [1]: reduced
frequency of basal extrusions [1]: slightly increasing

CNC(=O)c1cc(Oc2ccc(NC(=O)Nc3ccc(Cl)c(C(F)(F)F)c3)cc2)ccn1 [Sorafenib]
formation/frequency of motile multicellular protrusions [1]: blocked
frequency of basal extrusions [1]: blocked

C/C1=C/C(=O)O[C@@H]2C[C@@H](CC[C@H](C)/C=C\C=C\CC1)O[C@@](O)([C@@H]1CSC(=O)N1)C2 [latruncluin A, latrunculin A]
membrane tubules from the cell surface (Jurkat cells): rapid growth of long tubules
membrane microspikes (Jurkat cells): blocked the formation

O=C(NOC[C@H](O)CO)c1ccc(F)c(F)c1Nc1ccc(I)cc1F [PD325901]
formation/frequency of motile multicellular protrusions [1]: blocked
frequency of basal extrusions [1]: blocked

COC(=O)Nc1nc2ccc(C(=O)c3cccs3)cc2[nH]1 [nocodazole]
membrane tubules from the cell surface (Jurkat cells): retraction of the membrane tubules
membrane microspikes (Jurkat cells): completely blocked
